Source: ChEMBL document CHEMBL1150213, “Protein-tyrosine kinase inhibition: mechanism-based discovery of antitumor agents” (J Nat Prod, 1992)

How the values were obtained:
[1] = target: T1, Epidermal growth factor receptor (Homo sapiens, UniProt P00533)
[2] = target: Tyrosine-protein kinase Lck (Homo sapiens, UniProt P06239)
[3] = target: T1, Epidermal growth factor receptor; remark: listed apart in the source
Description: Inhibition of EGFR in human A431 cells

T1 sequence (P00533 whole entry): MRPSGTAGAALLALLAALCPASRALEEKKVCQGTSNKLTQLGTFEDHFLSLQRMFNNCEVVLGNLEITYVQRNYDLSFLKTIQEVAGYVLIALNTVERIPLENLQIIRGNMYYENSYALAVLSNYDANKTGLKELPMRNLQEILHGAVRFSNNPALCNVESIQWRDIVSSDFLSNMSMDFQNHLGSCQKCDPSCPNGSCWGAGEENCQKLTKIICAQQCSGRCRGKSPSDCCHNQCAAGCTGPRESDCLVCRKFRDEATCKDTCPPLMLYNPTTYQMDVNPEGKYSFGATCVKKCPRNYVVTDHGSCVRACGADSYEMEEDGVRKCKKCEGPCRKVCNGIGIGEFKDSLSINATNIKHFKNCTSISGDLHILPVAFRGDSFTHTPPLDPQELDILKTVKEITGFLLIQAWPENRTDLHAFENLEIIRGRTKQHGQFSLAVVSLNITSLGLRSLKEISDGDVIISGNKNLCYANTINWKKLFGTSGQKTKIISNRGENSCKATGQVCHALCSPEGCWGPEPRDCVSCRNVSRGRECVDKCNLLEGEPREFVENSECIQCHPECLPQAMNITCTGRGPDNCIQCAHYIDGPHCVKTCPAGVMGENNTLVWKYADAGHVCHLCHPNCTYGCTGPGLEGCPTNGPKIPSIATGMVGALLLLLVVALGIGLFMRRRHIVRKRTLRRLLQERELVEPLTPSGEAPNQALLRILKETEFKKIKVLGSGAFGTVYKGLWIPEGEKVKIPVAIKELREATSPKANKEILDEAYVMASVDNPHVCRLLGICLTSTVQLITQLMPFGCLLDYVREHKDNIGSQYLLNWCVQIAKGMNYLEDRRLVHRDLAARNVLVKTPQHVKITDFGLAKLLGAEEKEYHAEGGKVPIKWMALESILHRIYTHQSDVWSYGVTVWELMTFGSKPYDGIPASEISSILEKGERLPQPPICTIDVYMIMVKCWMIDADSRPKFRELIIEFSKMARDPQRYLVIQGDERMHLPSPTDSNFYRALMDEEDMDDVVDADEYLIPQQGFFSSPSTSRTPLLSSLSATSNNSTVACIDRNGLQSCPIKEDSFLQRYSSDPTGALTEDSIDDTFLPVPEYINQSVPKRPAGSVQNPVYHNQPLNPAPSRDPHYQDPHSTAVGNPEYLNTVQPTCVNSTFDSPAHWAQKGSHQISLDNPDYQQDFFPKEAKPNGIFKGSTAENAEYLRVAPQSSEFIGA
Chain of Tyrosine-protein kinase Lck (P06239 whole entry): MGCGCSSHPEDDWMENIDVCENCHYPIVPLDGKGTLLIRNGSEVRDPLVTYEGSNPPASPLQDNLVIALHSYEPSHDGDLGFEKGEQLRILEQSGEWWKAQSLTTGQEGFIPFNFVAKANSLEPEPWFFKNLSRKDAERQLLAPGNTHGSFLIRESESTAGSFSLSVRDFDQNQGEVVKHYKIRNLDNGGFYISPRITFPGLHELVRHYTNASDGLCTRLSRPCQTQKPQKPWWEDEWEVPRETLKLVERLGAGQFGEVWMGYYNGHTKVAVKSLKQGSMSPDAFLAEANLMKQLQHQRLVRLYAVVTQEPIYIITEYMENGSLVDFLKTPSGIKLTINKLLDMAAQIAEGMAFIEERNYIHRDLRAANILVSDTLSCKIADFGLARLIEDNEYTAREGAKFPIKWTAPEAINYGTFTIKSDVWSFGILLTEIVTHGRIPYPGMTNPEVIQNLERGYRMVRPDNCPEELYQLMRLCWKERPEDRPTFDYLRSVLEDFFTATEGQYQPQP

Structure (SMILES) | IC50 [2] [µM] | IC50 [3] [µM] | further results
COC(=O)/C=C/c1cc(O)ccc1O | – | – | IC50 [1]: 103 µM
O=c1cc(-c2ccc(O)cc2)oc2cc(O)cc(O)c12 [APIGENIN] | 14.8 | 111 | –
O=c1cc(-c2ccc(O)cc2)oc2cc(O)ccc12 | 787 | – | –
N#C/C(=C\c1cc(-c2ccccc2)c(O)c(-c2ccccc2)c1)C(N)=O | – | – | IC50 [1]: 0.4 µM
COc1cc(O)c2c(=O)c(-c3ccc(O)cc3)coc2c1 [PRUNETIN] | – | 14.1 | –
O=c1cc(-c2ccc(OCc3ccccc3)cc2)oc2cc(O)ccc12 | 2030 | – | –
COc1cc(O)c2c(c1)C(=O)c1cc(C)cc(O)c1C2=O [PHYSCION] | > 2810 | – | –
CSCc1cc(/C=C2\C(=O)Nc3ccccc32)cc(CSC)c1O | – | – | IC50 [1]: 0.4 µM
N#C/C(=C\c1ccc(O)cc1)C(=O)O [alpha-CYANO-4-HYDROXYCINNAMIC ACID] | – | 200 | –
O=CN/C=C/c1ccc(O)cc1 | – | – | IC50 [1]: > 61.3 µM
COc1cc(-c2cc(=O)c3ccc(O)cc3o2)cc(OC)c1O[Si](C)(C)C(C)(C)C | 163 | – | –
CC(C)(C)[Si](C)(C)Oc1ccc(-c2cc(=O)c3ccc(O)cc3o2)cc1 | 109 | – | –
COc1cc(C(C#N)=C(C#N)C#N)cc(O)c1O | – | 6 | –
N#C/C(=C/c1ccc(O)c(O)c1)C(=O)Nc1ccccc1Cl | – | 10 | –
COc1cc(-c2cc(=O)c3cc(O)ccc3o2)cc(OC)c1O[Si](C)(C)C(C)(C)C | 467 | – | –
O=c1c(O)c(-c2ccccc2)oc2cc(O)cc(O)c12 [GALANGIN] | 296 | – | –
N#C/C(=C\c1cc(O)ccc1O)C(=O)O | – | 20 | –
COc1cc(-c2cc(=O)c3ccc(O)cc3o2)cc(OC)c1OC | > 2440 | – | –
Nc1ccc(-c2cc(=O)c3cc(O)ccc3o2)cc1 | 1 | – | –
CC(=O)N/C=C/c1cc(O)ccc1O | – | – | IC50 [1]: 15.5 µM
O=C1c2ccccc2C(=O)c2c(O)cccc21 [1-HYDROXYANTHRAQUINONE] | > 3570 | – | –
O=c1c(O)c(-c2ccc(O)c(O)c2)oc2cc(O)cc(O)c12 [QUERCETIN] | 132 | – | –
O=C(O)c1cc(N(Cc2ccccc2O)Cc2ccccc2O)ccc1O [LAVENDUSTIN B] | – | 1.37 | –

Structure (SMILES) | IC50 [2] [µM] | IC50 [3] [µM] | further results
COc1cc(-c2cc(=O)c3ccc(O)c(O)c3o2)cc(OC)c1OC | 290 | – | –
O=c1cc(-c2ccccc2)oc2cc(O)ccc12 [7-HYDROXYFLAVONE] | 336 | – | –
N#CC(C#N)=C(C#N)c1cccc(O)c1 | – | 400 | –
O=CN/C=C/c1cccc(O)c1O | – | – | IC50 [1]: 1.67 µM
COc1ccc2oc(-c3cc(OC)c(OC)c(OC)c3)cc(=O)c2c1 | > 2340 | – | –
COc1cc(-c2cc(=O)c3cc(O)ccc3o2)cc(OC)c1O | 127 | – | –
O=c1c(-c2ccc(O)cc2)c(CNC2=NCCS2)oc2cc(O)cc(O)c12 | – | – | IC50 [1]: 52 µM
O=P(O)(O)C(O)c1ccc2ccccc2c1 (centres undefined) | – | 200 | –
O=c1cc(-c2ccccc2)oc2c(O)c(O)ccc12 [7,8-DIHYDROXYFLAVONE] | 315 | – | –
N#CC(C#N)=C(C#N)c1ccc(O)cc1 | – | 600 | –
N#C/C(=C\c1ccc(O)c(O)c1)C(=O)c1ccc(O)c(O)c1 | – | 0.4 | –
N#C/C(=C/c1ccc(O)c(O)c1)C(=O)NC1CCCCC1 | – | 2 | –
CC(C)c1cc(/C=C2\C(=O)Nc3ccccc32)cc(C(C)C)c1O | – | – | IC50 [1]: 0.4 µM
CC(C)OC(=O)c1oc2cc(O)cc(O)c2c(=O)c1-c1ccc(O)cc1 | – | – | IC50 [1]: 28.1 µM
CC(C)C[C@H](NC(=O)[C@H](CCCNC(=N)N)NC(=O)[C@@H](N)CCCNC(=N)N)C(=O)N[C@@H](CCC(=O)O)C(=O)N[C@@H](CCC(=O)O)C(=O)N[C@@H](CCC(=O)O)C(=O)N[C@@H](CCC(=O)O)C(=O)N[C@@H](CCC(=O)O)C(=O)N[C@@H](C)C(=O)N[C@@H](Cc1c(F)c(F)c(O)c(F)c1F)C(=O)NCC(=O)O (stereo in doubt; 187L) | – | – | Ki [1]: 4 µM
O=c1cc(-c2ccc(O)cc2)oc2ccc(O)cc12 | 11.8 | – | –
O=CN/C=C/c1ccc(O)c(O)c1 | – | – | IC50 [1]: 5.58 µM
Nc1ccc(-c2cc(=O)c3c(O)c(O)ccc3o2)cc1 | 7 | – | –
Cc1cc(O)c2c(c1)C(=O)c1cc(O[C@@H]3O[C@H](CO)[C@@H](O)[C@H](O)[C@H]3O)cc(O)c1C2=O | > 1850 | – | –
COc1cc(/C=C(\C#N)C(N)=O)cc(CSc2ccccc2)c1O | – | – | IC50 [1]: 0.5 µM
O=c1c(-c2ccc(O)cc2)c(CN2CCCCC2)oc2cc(O)cc(O)c12 | – | – | IC50 [1]: 27.2 µM
O=c1c(-c2ccc(O)cc2)coc2cc(O[C@@H]3O[C@H](CO)[C@@H](O)[C@H](O)[C@H]3O)cc(O)c12 [GENISTIN] | – | > 231 | –
COc1ccc(-c2coc3cc(O)cc(O)c3c2=O)cc1 [BIOCHANIN] | – | 106 | –

Structure (SMILES) | IC50 [2] [µM] | IC50 [3] [µM] | further results
O=c1c(O)c(-c2cc(O)cc(O)c2)oc2cc(O)cc(O)c12 | 99.3 | – | –
O=c1cc(-c2ccccc2)oc2ccccc12 [FLAVONE] | – | 225 | –
N#C/C(=C/c1ccc(O)c(O)c1)C(=O)NCCCCc1ccccc1 | – | 0.1 | –
O=C(O)c1ccc(O)cc1 [PARABEN] | – | 72.4 | –
O=C(O)c1oc2cc(O)cc(O)c2c(=O)c1-c1ccc(O)cc1 | – | – | IC50 [1]: 6.36 µM
COc1ccc(/C=N/Nc2ccccc2)cc1OC | 70 | – | –
O=C(O)c1cc(N(Cc2ccccc2O)Cc2cc(O)ccc2O)ccc1O [LAVENDUSTIN A] | – | 0.0105 | –
N#CC(C#N)=C(O)c1ccc(O)cc1 | – | 500 | –
O=CN/C=C/c1ccc(O)cc1O | – | – | IC50 [1]: > 167 µM
COc1cc(-c2cc(=O)c3cc(O)ccc3o2)cc(OC)c1OC | 60.9 | – | –
O=C(O)/C=C/c1ccc(O)c(O)c1 [CAFFEIC ACID] | – | 1000 | –
COc1cc(-c2cc(=O)c3ccc(O)cc3o2)cc(OC)c1O | 1270 | – | –
O=c1c(-c2ccc(O)cc2)c(CSC2=NCCS2)oc2cc(O)cc(O)c12 | – | – | IC50 [1]: 12.5 µM
COc1ccc(/C=C/c2cccnc2)cc1OC | 200 | – | –
CCOc1cc(/C=C2/CCNC2=O)cc(CSc2ccccc2)c1O | – | – | IC50 [1]: 0.9 µM
O=c1cc(-c2ccccc2)oc2cc(O)cc(O)c12 [CHRYSIN] | 19.7 | – | –
N#C/C(=C\c1ccc(O)c(O)c1)C(=O)c1ccccc1Cl | – | 2 | –
COc1c(O)cc(O)c2c(=O)c(-c3ccc(O)cc3)coc12 [PSI-TECTORIGENIN] | – | 0.333 | –
O=c1c(-c2ccc(O)cc2)coc2cc(O)ccc12 [DAIDZEIN] | – | > 393 | –
COc1cc(-c2cc(=O)c3ccc(OC(C)=O)cc3o2)cc(OC)c1O | > 2250 | – | –
COc1cc(/C=C/[N+](=O)[O-])ccc1O | – | 8 | –
O=c1cc(-c2cccc(O)c2)oc2c(O)c(O)ccc12 | 185 | – | –
O=CN/C=C/c1ccc(O)c(O)c1O | – | – | IC50 [1]: 4.61 µM

Structure (SMILES) | IC50 [2] [µM] | IC50 [3] [µM] | further results
COc1cc(-c2cc(=O)c3ccc(OC(C)=O)c(OC(C)=O)c3o2)cc(OC)c1O[Si](C)(C)C(C)(C)C | > 1510 | – | –
O=CN/C=C/c1cc(Br)ccc1O | – | – | IC50 [1]: > 24.8 µM
O=c1cc(-c2ccc(O)c(O)c2)oc2cc(O)cc(O)c12 [LUTEOLIN] | 34.9 | – | –
N#C/C(=C\c1ccc(O)c(O)c1)C(=O)O | – | 30 | –
O=c1cc(-c2cccc(O)c2)oc2cccc(O)c12 | 315 | – | –
N#CC(C#N)=C(O)c1cc(O)c(O)c(O)c1 | – | 10 | –
O=[N+]([O-])/C=C/c1ccc(O)c(O)c1 | – | 9 | –
CCOC(=O)C(=O)Oc1ccc(-c2c(C(=O)OCC)oc3cc(O)cc(O)c3c2=O)cc1 | – | – | IC50 [1]: 1 µM
CCOc1cc(/C=C(\C#N)C(N)=O)cc(CSc2ccccc2)c1O | – | – | IC50 [1]: 0.4 µM
N#C/C(=C\c1ccc(O)c(O)c1)C(=O)NCCc1ccccc1 | – | 0.9 | –
O=c1cc(-c2cccc(O)c2)oc2cc(O)ccc12 | 39.3 | – | –
O=C(O)c1ccc(O)c(N(Cc2ccccc2O)Cc2cc(O)ccc2O)c1 | – | 0.524 | –
CC(C)c1cc(/C=C(\C#N)C(N)=O)cc(C(C)C)c1O | – | – | IC50 [1]: 1 µM
COc1ccc(O)c(/C=C/NC=O)c1 | – | – | IC50 [1]: > 31.1 µM
COc1cc(-c2cc(=O)c3ccc(OC(C)=O)cc3o2)cc(OC)c1O[Si](C)(C)C(C)(C)C | > 1700 | – | –
COc1cc(-c2cc(=O)c3ccccc3o2)cc(OC)c1O | 26.8 | – | –
COc1cc(-c2cc(=O)c3ccc(O)c(O)c3o2)cc(OC)c1O[Si](C)(C)C(C)(C)C | > 1800 | – | –
COc1cc(-c2cc(=O)c3ccc(OC)c(OC)c3o2)cc(OC)c1OC | > 2150 | – | –
COc1ccc2c(=O)cc(-c3cc(OC)c(OC)c(OC)c3)oc2c1 | > 2340 | – | –
CC(=O)Oc1ccc2c(c1)C(=O)c1ccccc1C2=O | > 3000 | – | –
N#CC(C#N)=C(N)/C(C#N)=C/c1ccc(O)c(O)c1 | – | 3 | –
C/C(=C\c1ccc(O)c(O)c1)[N+](=O)[O-] | – | 9 | –
O=c1cc(-c2ccc(OCc3ccccc3)cc2)oc2cccc(O)c12 | > 2320 | – | –

Structure (SMILES) | IC50 [2] [µM] | IC50 [3] [µM] | further results
N#C/C(=C\c1ccc(O)c(O)c1)C(=O)c1ccc(F)cc1 | – | 0.6 | –
COc1cc(O)c2c(=O)cc(-c3ccc(O)cc3)oc2c1 [GENKWANIN] | 281 | – | –
O=c1c(O)c(-c2ccc(O)cc2)oc2cc(O)cc(O)c12 [KAEMPFEROL] | – | 10.5 | –
N#CC(C#N)=C(C#N)c1ccc(O)c(O)c1 | – | 10 | –
COc1ccc(-c2cc(=O)c3c(O)cc(O)cc3o2)cc1 [ACACETIN] | – | 141 | –
CC(C)(C)[Si](C)(C)Oc1ccc(-c2cc(=O)c3cc(O)ccc3o2)cc1 | 109 | – | –
O=c1cc(-c2cccc(O)c2)oc2ccc(O)cc12 | 157 | – | –
Cc1ccc(C(=O)/C(C#N)=C/c2ccc(O)c(O)c2)cc1 | – | 0.9 | –
N#CC(C#N)=C(N)/C(C#N)=C/c1ccc(O)cc1 | – | 0.1 | –
O=C1c2ccccc2C(=O)c2cc(O)ccc21 [2-HYDROXYANTHRAQUINONE] | 89.2 | – | –
COc1cc(C(C#N)=C(C#N)C#N)cc(OC)c1O | – | 900 | –
COc1cc(-c2oc3cc(O)cc(O)c3c(=O)c2O)cc(OC)c1O [SYRINGETIN] | 57.8 | – | –
N#C/C(=C\c1ccc(O)c(O)c1)C(=O)c1ccc([N+](=O)[O-])cc1 | – | 2 | –
N#CC(C#N)=C(C#N)c1cc(O)cc(O)c1 | – | 10 | –
Nc1ccc(-c2cc(=O)c3ccc(O)cc3o2)cc1 | 100 | – | –
N#C/C(=C\c1ccc(O)c(O)c1)C(=O)c1ccccc1 | – | 1 | –
N#CC(C#N)=C(C#N)c1cc(O)c(O)c(O)c1 | – | 3 | –
N#CC(C#N)=C(C#N)c1ccc(C=O)cc1 | – | 600 | –
O=C(O)c1cc(N(Cc2cc(O)ccc2O)Cc2cc(O)ccc2O)ccc1O | – | 0.0252 | –
O=c1cc(-c2ccc(O)cc2)oc2cccc(O)c12 | 15.7 | – | –
COc1cc(-c2cc(=O)c3ccc(O)c(O)c3o2)cc(OC)c1O | 121 | – | –
